According to US12686687B2, “Compounds and uses thereof” (Foghorn Therapeutics Inc., priority 2019, dated 2026):
Read-outs that look alike come from different tables or passages of the source.

Molecular target: T1, Nanoluciferase-BRD9 fusion protein (3×FLAG-NLuc-BRD9) in SYO-1 cells (Homo sapiens, UniProt Q9H8M2)
T1 construct: expressed in transfected cells; host or cells: SYO-1
T1 sequence (Q9H8M2 1-597): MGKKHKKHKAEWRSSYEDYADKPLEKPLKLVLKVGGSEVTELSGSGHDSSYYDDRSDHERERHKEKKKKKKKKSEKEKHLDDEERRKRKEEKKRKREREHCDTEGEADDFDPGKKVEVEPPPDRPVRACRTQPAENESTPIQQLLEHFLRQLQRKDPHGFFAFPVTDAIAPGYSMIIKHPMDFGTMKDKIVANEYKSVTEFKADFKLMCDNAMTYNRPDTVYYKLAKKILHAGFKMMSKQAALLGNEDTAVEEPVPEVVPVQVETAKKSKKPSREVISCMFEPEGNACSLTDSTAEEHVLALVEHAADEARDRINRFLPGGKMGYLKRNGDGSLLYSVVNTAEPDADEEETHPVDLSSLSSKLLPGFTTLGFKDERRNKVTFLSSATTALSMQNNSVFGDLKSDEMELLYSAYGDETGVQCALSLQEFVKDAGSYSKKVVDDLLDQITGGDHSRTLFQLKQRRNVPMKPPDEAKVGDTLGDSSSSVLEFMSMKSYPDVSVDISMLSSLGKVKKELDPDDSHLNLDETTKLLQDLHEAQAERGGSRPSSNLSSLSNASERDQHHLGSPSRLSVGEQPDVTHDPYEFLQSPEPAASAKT
Test: SYO1 BRD9 NanoLuc degradation assay
Assay type: cell-based
Conditions: SYO-1 cells expressing 3×FLAG-NLuc-BRD9, 6 hours incubation, 1 μM top dose, read-out: SYO1 BRD9-NanoLuc degradation IC50
Procedure: Procedure: A stable SYO-1 cell line expressing 3×FLAG-NLuc-BRD9 was generated. On day 0 cells were seeded in 30 μL media into each well of 384-well cell culture plates. The seeding density was 8000 cells/well. On day 1, cells were treated with 30 nL DMSO or 30 nL of 3-fold serially DMSO-diluted compounds (10 points in duplicates with 1 μM as final top dose). Subsequently plates were incubated for 6 hours in a standard tissue culture incubator and equilibrated at room temperature for 15 minutes. Nanoluciferase activity was measured by adding 15 μL of freshly prepared Nano-Glo Luciferase Assay Reagent (Promega N1130), shaking the plates for 10 minutes and reading the bioluminescence using an EnVision reader. • Results: The Inhibition % was calculated using the following formula: % Inhibition=100×(LumHC−LumSample)/(LumHC−LumLC). DMSO treated cells are employed as High Control (HC) and 1 μM of a known BRD9 degrader standard treated cells are employed as Low Control (LC).

Row | DC50 (Table 6C) [nM] | DC50 (Table 6B) [nM] | SMILES
1 | < 10 |  | COc1cc(-c2cn(C)c(=O)c3cc(C(=O)NC4CCN(c5cccc(OC6CCC(=O)NC6=O)c5)CC4)sc23)cc(OC)c1CN(C)C (centres unmarked) [Compound D108]
2 | > 1000 |  | COc1cc(-c2cn(C)c(=O)c3cc(C(=O)NC4CCN(C(=O)c5csc(C(=O)c6c[nH]c7ccccc67)n5)CC4(F)F)sc23)cc(OC)c1CN(C)C (centres unmarked) [DD1]
3 |  | > 10 | COc1cc(-c2cn(C)c(=O)c3cc(C(=O)NCC4CC5(C4)CN(CCN4CCN(c6ccc7c(c6)C(=O)N(C6CCC(=O)NC6=O)C7=O)CC4)C5)sc23)cc(OC)c1CN(C)C (centres unmarked) [Compound D53]
4 | < 10 |  | COc1cc(-c2cn(C)c(=O)c3cc(C(=O)N(C)C)sc23)cc(OC)c1CN1CCC2(CC1)CN(c1ccc3c(c1)C(=O)N(C1CCC(=O)NC1=O)C3)C2 (centres unmarked) [Compound D133]
5 | < 10 |  | COc1cc(-c2cn(C)c(=O)c3cc(C(=O)NC4CCN(c5ccc6c(c5)C(=O)N(C5CCC(=O)NC5=O)C6)CC4)sc23)cc(OC)c1CN(C)C (centres unmarked) [Compound D146]
6 |  | > 100 | COc1cc(-c2cn(C)c(=O)c3cc(C(=O)NCC4CC5(CCN(C(=O)CCN6CCN(c7ccc8c(c7)C(=O)N(C7CCC(=O)NC7=O)C8=O)CC6)CC5)O4)sc23)cc(OC)c1CN(C)C (centres unmarked) [Compound D61]
7 | < 10 |  | COc1cc(-c2cn(C)c(=O)c3sccc23)cc(OC)c1CN1CCC(CN2CCC3(CC2)CC(Oc2ccc4c(c2)CN(C2CCC(=O)NC2=O)C4=O)C3)CC1 (centres unmarked) [Compound D193]
8 | < 10 |  | COc1cc(-c2cn(C)c(=O)c3cc(C#N)sc23)cc(OC)c1CN1CCC2(CC1)CN(c1ccc3c(c1)C(=O)N(C1CCC(=O)NC1=O)C3)C2 (centres unmarked) [Compound D139]
9 | < 10 |  | COc1cc(-c2c(C)n(C)c(=O)c3ccsc23)cc(OC)c1CN1CCC2(CC1)CN(c1ccc3c(c1)C(=O)N(C1CCC(=O)NC1=O)C3)C2 (centres unmarked) [Compound D158]
10 | < 10 |  | COc1cc(-c2cn(C)c(=O)c3ccsc23)cc(OC)c1CN1CCC2CN(c3ccc4c(c3)C(=O)N(C3CCC(=O)NC3=O)C4)CCC2C1 (centres unmarked) [Compound D106]
11 | < 10 |  | COc1cc(-c2cn(C)c(=O)c3cc(C(=O)NC4CN(C5CCN(c6ccc7c(c6)C(=O)N(C6CCC(=O)NC6=O)C7)CC5)CC4(F)F)sc23)cc(OC)c1CN(C)C (centres unmarked) [Compound D182]
12 | < 10 |  | COc1cc(-c2cn(C)c(=O)c3cnsc23)cc(OC)c1CN1CCC2(CC1)CN(c1ccc3c(c1)C(=O)N(C1CCC(=O)NC1=O)C3=O)C2 (centres unmarked) [Compound D209]
13 |  | > 10 | COc1cc(-c2cn(C)c(=O)c3cc(NC(=O)C4CCN(CCCCCOc5cccc6c5C(=O)N(C5CCC(=O)NC5=O)C6=O)CC4(F)F)sc23)cc(OC)c1CN(C)C (centres unmarked) [Compound D59]
14 | < 10 |  | COc1cc(-c2cn(C)c(=O)c3cc(C(=O)NC4CCN(CCN5CCN(c6ccc7c(c6)C(=O)N(C6CCC(=O)NC6=O)C7)CC5)CC4(F)F)sc23)cc(OC)c1CN(C)C (centres unmarked) [Compound D200]
15 | < 10 |  | COc1cc(-c2cn(C)c(=O)c3cc(C(=O)NC4CC5(CCN(c6ccc7c(c6)C(=O)N(C6CCC(=O)NC6=O)C7)CC5)C4)sc23)cc(OC)c1CN(C)C (centres unmarked) [Compound D149]
16 | < 10 |  | Cn1cc(-c2cccc(C(F)(F)F)c2)c2sc(C(=O)NC3CCN(c4ccc5c(c4)C(=O)N(C4CCC(=O)NC4=O)C5)CC3)cc2c1=O (centres unmarked) [Compound D128]
17 | > 10 |  | Cn1cc(-c2cccc(C(F)(F)F)c2)c2oc(C(=O)NC3CCN(c4ccc5c(c4)C(=O)N(C4CCC(=O)NC4=O)C5)CC3)cc2c1=O (centres unmarked) [Compound D211]
18 | < 10 |  | COc1cc(-c2cn(C)c(=O)c3cc(C(=O)NC4CCN(c5ccc6c(c5)C(=O)N(C5CCC(=O)NC5=O)C6)CC4(F)F)sc23)cc(F)c1CN(C)C (centres unmarked) [Compound D118]
19 |  | < 10 | COc1cc(-c2cn(C)c(=O)c3cc(C(=O)NC4CCN(CC(F)(F)CCCOc5ccc6c(c5)C(=O)N(C5CCC(=O)NC5=O)C6=O)CC4)sc23)cc(OC)c1CN(C)C (centres unmarked) [Compound D83]
20 |  | < 10 | COc1cc(-c2cn(C)c(=O)c3cc(C(=O)NC4CC5CC4CN5CCN4CCN(c5ccc6c(c5)C(=O)N(C5CCC(=O)NC5=O)C6=O)CC4)sc23)cc(OC)c1CN(C)C (centres unmarked) [Compound D70]
21 | < 10 |  | CNc1cc2c(=O)n(C)cc(-c3cc(OC)c(CN4CCC5(CC4)CN(c4ccc6c(c4)C(=O)N(C4CCC(=O)NC4=O)C6)C5)c(OC)c3)c2s1 (centres unmarked) [Compound D97]

Row | DC50 (Table 6C) [nM] | DC50 (Table 6B) [nM] | SMILES
22 |  | > 10 | COc1cc(-c2cn(C)c(=O)c3cc(C(=O)NC4CC5CC4CN5C(=O)CCN4CCN(c5ccc6c(c5)C(=O)N(C5CCC(=O)NC5=O)C6=O)CC4)sc23)cc(OC)c1CN(C)C (centres unmarked) [Compound D68]
23 | < 10 |  | COc1cc(-c2cn(C)c(=O)c3cnsc23)cc(OC)c1CN1CC(Oc2ccc3c(c2)C(=O)N(C2CCC(=O)NC2=O)C3)C1 (centres unmarked) [Compound D213]
24 | > 100 |  | COc1cc(-c2cn(C)c(=O)c3cc(C(=O)Nc4cccc(OC5CCC(=O)NC5=O)c4)sc23)cc(OC)c1CN(C)C (centres unmarked) [Compound D95]
25 |  | < 10 | COc1cc(-c2cn(C)c(=O)c3cc(C(=O)NC4CC5(CCN(CCN6CCN(c7ccc8c(c7)C(=O)N(C7CCC(=O)NC7=O)C8=O)CC6)CC5)C4)sc23)cc(OC)c1CN(C)C (centres unmarked) [Compound D41]
26 | < 10 |  | COc1cc(-c2cn(C)c(=O)c3cc(C(=O)NC4CCN(CCCCCOc5ccc6c(c5)C(=O)N(C5CCC(=O)NC5=O)C6)CC4(F)F)sc23)cc(OC)c1CN(C)C (centres unmarked) [Compound D159]
27 |  | < 10 | COc1cc(-c2cn(C)c(=O)c3cc(C(=O)NC4CCN(C(=O)CCCCOc5cccc6c5C(=O)N(C5CCC(=O)NC5=O)C6=O)CC4)sc23)cc(OC)c1CN1CCC1 (centres unmarked) [Compound D29]
28 |  | < 10 | COc1cc(-c2cn(C)c(=O)c3cc(C(=O)NC4CCN(C5CCN(c6ccc7c(c6)C(=O)N(C6CCC(=O)NC6=O)C7)CC5)CC4(F)F)sc23)cc(OC)c1CN(C)C (centres unmarked) [Compound D24]
29 |  | < 10 | COc1cc(-c2cn(C)c(=O)c3cc(C(=O)NC4CCN(C(=O)CCN5CCN(c6ccc7c(c6)C(=O)N(C6CCC(=O)NC6=O)C7=O)CC5)CC4)sc23)cc(OC)c1CN(C)C (centres unmarked) [Compound D78]
30 | < 10 |  | COc1cc(-c2cn(C)c(=O)c3ccsc23)cc(OC)c1CN1CCC2CCN(c3ccc4c(c3)CN(C3CCC(=O)NC3=O)C4=O)CC2C1 (centres unmarked) [Compound D121]
31 | < 10 |  | COc1cc(-c2cn(C)c(=O)c3cc(C(=O)N[C@@H]4CCN(c5ccc6c(c5)C(=O)N(C5CCC(=O)NC5=O)C6)CC4(F)F)sc23)cc(OC)c1CN(C)C (some centres unmarked) [Compound D156]
32 | < 10 |  | COc1cc(-c2cn(C)c(=O)c3cc(C(=O)NC4CCN(C)CC4(F)F)sc23)cc(OC)c1CN1CC(CN2CCC3(CC2)CN(c2ccc4c(c2)C(=O)N(C2CCC(=O)NC2=O)C4)C3)C1 (centres unmarked) [Compound D188]
33 |  | < 10 | COc1cc(-c2cn(C)c(=O)c3cc(C(=O)NC4CCN(C)CC4(F)F)sc23)cc(OC)c1CN1CCC(CCN2CCN(c3ccc4c(c3)C(=O)N(C3CCC(=O)NC3=O)C4=O)CC2)CC1 (centres unmarked) [Compound D26]
34 | < 10 |  | COc1cc(-c2cn(C)c(=O)c3cc(C(=O)N[C@@H]4CCN(C5CCN(c6ccc7c(c6)C(=O)N([C@@H]6CCC(=O)NC6=O)C7)CC5)CC4(F)F)sc23)cc(OC)c1CN(C)C [Compound D134]
35 |  | < 10 | COc1cc(-c2cn(C)c(=O)c3cc(C(=O)NC4CC5(CCN(CCN6CCN(c7ccc8c(c7)C(=O)N([C@H]7CCC(=O)NC7=O)C8=O)CC6)C5)C4)sc23)cc(OC)c1CN(C)C (some centres unmarked) [Compound D66]
36 | > 100 |  | COc1cc(-c2cn(C)c(=O)c3cc(C(=O)NC4CCN(C5CC6(C5)CN(c5ccc7c(c5)CN(C5CCC(=O)NC5=O)C7=O)C6)CC4(F)F)sc23)cc(OC)c1CN(C)C (centres unmarked) [Compound D137]
37 | < 10 |  | COc1cc(-c2cn(C)c(=O)c3ccsc23)cc(OC)c1CN1CC(C#Cc2ccc3c(c2)C(=O)N(C2CCC(=O)NC2=O)C3)C1 (centres unmarked) [Compound D92]
38 | < 10 |  | COc1cc(-c2c(C)n(C)c(=O)c3ccsc23)cc(OC)c1CN1CCC(CN2CCC3(CC2)CN(c2ccc4c(c2)C(=O)N(C2CCC(=O)NC2=O)C4)C3)CC1 (centres unmarked) [Compound D153]
39 | < 10 |  | CCc1cc(OC)cc(-c2cn(C)c(=O)c3cc(C(=O)NC4CCN(c5ccc6c(c5)C(=O)N(C5CCC(=O)NC5=O)C6)CC4(F)F)sc23)c1 (centres unmarked) [Compound D129]
40 | < 10 |  | COc1cc(-c2cn(C)c(=O)c3cc(C(=O)NC4CN(c5ccc6c(c5)C(=O)N(C5CCC(=O)NC5=O)C6=O)CC4(F)F)sc23)cc(OC)c1CN(C)C (centres unmarked) [Compound D190]
41 |  | < 10 | COc1cc(-c2cn(C)c(=O)c3scnc23)cc(OC)c1CN1CC(CN2CCC3(CC2)CN(c2ccc4c(c2)C(=O)N(C2CCC(=O)NC2=O)C4)C3)C1 (centres unmarked) [Compound D20]
